Results taken from patent US8470876B2, “Lipid composition for the treatment of skin problems in companion animals” (priority 2009, dated 2013).

Columns and labels:
Assay type in all cases: in vivo
[1] = tested on: skin and claws; experiment: Case: Bullterrier with skin problems and splitting and breaking claws; conditions: past treatment history of the same dog
From the text: A three year old, female Bullterrier Dog had suffered from various skin problems since it was a puppy. The skin problems were characterized by red spots in the stomach and hairless spots in the head and in the hind limbs. In addition to the skin problems the dog suffered from splitting and breaking claws. The claws kept constantly breaking and by the age of three the claws had never grown long enough to be clipped. […] The skin was cleared from the red spots and the hairless areas started to grow hair. The positive effects on the skin health remained over several months as the supplementation was continued. […] Three months after the supplementation with the oil blend had begun, the dog's claws needed to be clipped. This was the first time in this dog's life.

[2] = tested on: rhinarium; experiment: Case: French Bulldog with dry, rough and chapped rhinarium; conditions: past treatment history of the same dog
From the text: In this breed of dogs the rhinarium is typically black, but for this individual the black colour of the rhinarium had faded and was grey. […] Topical treatment with oil or ointments provided temporary smoothing effect and a change in colour. […] The rhinarium was no longer rough and chapped, but it was supple and had obtained a characteristic black colour. Subsequently the positive effect on the rhinarium condition was produced with the oil blend in dogs from different breeds.

[3] = tested on: symmetrical lupoid onychodystrophy (SLO); experiment: Case: schapendoes dog with symmetrical lupoid onychodystrophy (SLO); conditions: initial treatment before supplementation
Protocol: A four year old, female schapendoes dog was diagnosed with symmetrical lupoid onychodystrophy (SLO). […] Supplementation with the nutritional oil blend as prepared in example 1 at 4 ml/10 kg body weight was started immediately after the secondary infections had cleared.

[4] = tested on: atopic and pruritic skin; experiment: Case: Parson Russell terrier with atopic and pruritic skin; conditions: past treatment history of the same dog
From the text: An eight-year-old Parson Russell terrier had suffered for a long time from atopic and pruritic skin. The dog had been treated with cortisone and with a variety of different fatty acid supplements containing GLA and fish oil fatty acids (EPA and DHA). […] Constant itching tired the dog and it became phlegmatic. The dog was put on daily dosing of the nutritional oil blend as prepared in example 1 and a clear change in the dogs skin condition and behaviour occurred in a matter of weeks. The rashes and itching was reduced by 95%.

O=C(O)CCCC[C@@H]1SC[C@@H]2NC(=O)N[C@@H]21 [biotin]
claws with earlier treatment [1]: without any appreciable improvement | appearance of the rhinarium with earlier nutritional supplements [2]: without any appreciable effect

CC1=C(C(=O)O)N2C(=O)[C@@H](NC(=O)[C@H](N)c3ccccc3)[C@H]2SC1 [cephalexin]
secondary bacterial infections in affected claws [3]: total resolution of the bacterial infection

C[C@]12CCC(=O)C=C1CC[C@@H]1[C@@H]2C(=O)C[C@@]2(C)[C@H]1CC[C@]2(O)C(=O)CO [cortisone]
effect of earlier treatments on atopic and pruritic skin [4]: provided help only for some weeks

vitamin A
appearance of the rhinarium with earlier nutritional supplements [2]: without any appreciable effect
